Data from patent US8575156B2, “Cyclic inhibitors of 11β-hydroxysteroid dehydrogenase 1” (Vitae Pharmaceuticals, Inc., priority 2007, dated 2013).
Read-outs that look alike come from different tables or passages of the source.

Target: 11β-HSD1 (Homo sapiens, UniProt P28845)
Test: biochemical
Conditions: for IC50: IC50 Range
[1] = Biological Test Example 1, microsomes from CHO cells overexpressing human 11β-HSD1
[2] = read-out: Average % inhibition at 111.1 nM, Biological Test Example 1, 111.1 nM compound
[3] = read-out: Average % inhibition at 100 nM, Biological Test Example 1, 100 nM
[4] = read-out: Average % inhibition at 100 nM, Biological Test Example 1, 100 nM compound

11β-HSD1, sequence (P28845 whole entry): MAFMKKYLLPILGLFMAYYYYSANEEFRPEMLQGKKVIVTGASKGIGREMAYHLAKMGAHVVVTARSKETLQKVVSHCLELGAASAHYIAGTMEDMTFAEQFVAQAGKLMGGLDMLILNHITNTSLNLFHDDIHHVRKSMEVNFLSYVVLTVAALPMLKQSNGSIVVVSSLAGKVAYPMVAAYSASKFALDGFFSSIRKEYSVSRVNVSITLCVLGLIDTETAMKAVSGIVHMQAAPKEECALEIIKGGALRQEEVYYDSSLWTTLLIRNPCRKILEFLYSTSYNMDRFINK

Row | Compound | IC50 [1] [nM] | inhibition at 0.1 µM [3] [%] | also measured
1 | CC1(c2ccccc2)CCN(c2cccc(-c3ccc(S(=O)(=O)N4CCCC4)cc3)c2)C(=O)O1 (centres unmarked) [EXAMPLE 16, 6-methyl-6-phenyl-3-(4′-(pyrrolidin-1-ylsulfonyl)biphenyl-3-yl)-1,3-oxazinan-2-one] | 100 to 1000 | – | inhibition at 0.1111 µM [2]: 35.7%
2 | C[C@@H](c1ccc(OC(F)F)cc1)N1CC[C@](CCCO)(c2ccccc2)OC1=O [EXAMPLE 329, (R)-3-((S)-1-(4-(difluoromethoxy)phenyl)ethyl)-6-(3-hydroxypropyl)-6-phenyl-1,3-oxazinan-2-one] | < 100 | 99.8 | –
3 | O=C1OC(CCO)(c2ccc(F)cc2)CCN1c1cccc(-c2ccc(F)cc2F)n1 (centres unmarked) [EXAMPLE 108, 3-(6-(2,4-difluorophenyl)pyridin-2-yl)-6-(4-fluorophenyl)-6-(2-hydroxyethyl)-1,3-oxazinan-2-one] | < 100 | – | inhibition at 0.1111 µM [2]: 55.4%
4 | CC1(c2ccccc2)CCN(c2cccc(-c3cccc(N)c3)c2)C(=O)O1 (centres unmarked) [EXAMPLE 32, 3-(3′-aminobiphenyl-3-yl)-6-methyl-6-phenyl-1,3-oxazinan-2-one] | 100 to 1000 | – | inhibition at 0.1111 µM [2]: 46%
5 | CC(O)C[C@]1(c2ccccc2)CCN([C@@H](C)c2ccc(-c3ccc(F)cc3F)cc2)C(=O)O1 (stereo partly drawn) [EXAMPLE 170, (6S)-3-((S)-1-(2′,4′-difluorobiphenyl-4-yl)ethyl)-6-(2-hydroxypropyl)-6-phenyl-1,3-oxazinan-2-one] | < 100 | – | inhibition at 0.1 µM [4]: 97%
6 | C[C@@H](c1cccc(Br)c1)N1CC[C@](CCC(N)=O)(c2ccc(F)cc2)OC1=O [EXAMPLE 358, 3-((R)-3-((S)-1-(3-bromophenyl)ethyl)-6-(4-fluorophenyl)-2-oxo-1,3-oxazinan-6-yl)propanamide] | < 100 | 84 | –
7 | C[C@@H](c1ccc(OC(F)F)cc1)N1CC[C@](CCO)(c2ccccc2)OC1=O [EXAMPLE 327, (S)-3-((S)-1-(4-(difluoromethoxy)phenyl)ethyl)-6-(2-hydroxyethyl)-6-phenyl-1,3-oxazinan-2-one] | < 100 | 97.2 | –
8 | C=CC[C@]1(c2ccc(F)cc2)CCN([C@@H](C)c2ccccc2)C(=O)O1 (single isomer, unassigned) [EXAMPLE 95 Isomer 1] | < 100 | – | inhibition at 0.1111 µM [2]: 91%
9 | C[C@@H](c1ccc(Br)cc1)N1CC[C@](CC(C)(C)NC(=O)C(C)(C)C)(c2ccccc2)OC1=O [EXAMPLE 693, N-(1-((S)-3-((S)-1-(4-bromophenyl)ethyl)-2-oxo-6-phenyl-1,3-oxazinan-6-yl)-2-methylpropan-2-yl)pivalamide] | – | – | IC50 (microsomes from CHO cells overexpressing human 11β-HSD1): > 100 nM; inhibition at 0.1 µM (read-out: Average % inhibition at 100 nM, 100 nM compound, microsomes from CHO cells overexpressing human 11β-HSD1): 17.6%
10 | Cc1cccc(C2(C)CCN([C@@H](C)c3ccccc3)C(=O)O2)c1 (stereo partly drawn) [EXAMPLE 87, 6-methyl-3-((S)-1-phenylethyl)-6-m-tolyl-1,3-oxazinan-2-one] | < 100 | – | –
11 | CC[C@@H](c1ccc(Br)cc1)N1CC[C@](CCC(N)=O)(c2ccc(F)cc2)OC1=O [EXAMPLE 368, 3-((R)-3-((S)-1-(4-bromophenyl)propyl)-6-(4-fluorophenyl)-2-oxo-1,3-oxazinan-6-yl)propanamide] | < 100 | 96.9 | –
12 | CC(O)C[C@]1(c2ccc(F)cc2)CCN([C@@H](C)c2ccc(F)cc2)C(=O)O1 (stereo partly drawn) [EXAMPLE 408, (6S)-6-(4-fluorophenyl)-3-((S)-1-(4-fluorophenyl)ethyl)-6-(2-hydroxypropyl)-1,3-oxazinan-2-one] | < 100 | 90.2 | –
13 | Cc1ccc([C@H](C)N2CC[C@](CC(C)(C)O)(c3ccc(F)cc3)OC2=O)cc1 [EXAMPLE 417, (S)-6-(4-fluorophenyl)-6-(2-hydroxy-2-methylpropyl)-3-((S)-1-p-tolylethyl)-1,3-oxazinan-2-one] | < 100 | 97.1 | –
14 | CC1(c2ccccc2)CCN(c2nccc(Cl)n2)C(=O)O1 (centres unmarked) [EXAMPLE 57, 3-(4-chloropyrimidin-2-yl)-6-methyl-6-phenyl-1,3-oxazinan-2-one] | 100 to 1000 | – | inhibition at 0.1111 µM (read-out: Average % inhibition at 111.1 nM): 10.4%
15 | CC(O)c1ccc(-c2ccc([C@H](C)N3CC[C@](CCCO)(c4ccccc4)OC3=O)cc2)s1 (stereo partly drawn) [EXAMPLE 254, (6R)-3-((1S)-1-(4-(5-(1-hydroxyethyl)thiophen-2-yl)phenyl)ethyl)-6-(3-hydroxypropyl)-6-phenyl-1,3-oxazinan-2-one] | < 100 | – | inhibition at 0.1 µM [4]: 96%
16 | C[C@@H](c1cccc(C(F)(F)F)c1)N1CC[C@](CCCO)(c2ccc(F)cc2)OC1=O [EXAMPLE 293, (R)-6-(4-fluorophenyl)-6-(3-hydroxypropyl)-3-((S)-1-(3-(trifluoromethyl)phenyl)ethyl)-1,3-oxazinan-2-one] | < 100 | – | inhibition at 0.1 µM [4]: 94%
17 | C[C@@H](c1ccc(-c2ccccc2)cc1)N1CC[C@](CCO)(c2ccccc2)OC1=O [EXAMPLE 489, (S)-3-((S)-1-(biphenyl-4-yl)ethyl)-6-(2-hydroxyethyl)-6-phenyl-1,3-oxazinan-2-one] | < 100 | 98.3 | –

Row | Compound | IC50 [1] [nM] | inhibition at 0.1 µM [3] [%] | also measured
18 | CCOC(=O)COc1cccc([C@H](C)N2CCC(C)(c3ccccc3)OC2=O)c1 (stereo partly drawn) [EXAMPLE 91, ethyl 2-(3-((1S)-1-(6-methyl-2-oxo-6-phenyl-1,3-oxazinan-3-yl)ethyl)phenoxy)acetate] | 100 to 1000 | – | inhibition at 0.1111 µM [2]: 39.8%
19 | Cc1nnc(CC[C@]2(c3ccccc3)CCN([C@@H](C)c3ccc(Br)cc3)C(=O)O2)s1 [EXAMPLE 601, (R)-3-((S)-1-(4-bromophenyl)ethyl)-6-(2-(5-methyl-1,3,4-thiadiazol-2-yl)ethyl)-6-phenyl-1,3-oxazinan-2-one] | < 100 | 89.4 | –
20 | CNS(=O)(=O)c1cccc(-c2cccc(N3CCC(C)(c4ccccc4)OC3=O)c2)c1 (centres unmarked) [EXAMPLE 30, N-methyl-3′-(6-methyl-2-oxo-6-phenyl-1,3-oxazinan-3-yl)biphenyl-3-sulfonamide] | 100 to 1000 | – | inhibition at 0.1111 µM [2]: 23.1%
21 | C[C@@H](c1ccc(Br)cc1)N1CC[C@](CCN2CCOCC2)(c2ccccc2)OC1=O [EXAMPLE 397, (R)-3-((S)-1-(4-bromophenyl)ethyl)-6-(2-morpholinoethyl)-6-phenyl-1,3-oxazinan-2-one] | < 100 | 94.7 | –
22 | C[C@@H](c1ccc(-c2ccc(F)cc2F)cc1)N1CC[C@](CC(O)CO)(c2ccc(F)cc2)OC1=O (stereo partly drawn) [EXAMPLE 52, (6S)-3-((S)-1-(2′,4′-difluorobiphenyl-4-yl)ethyl)-6-(2,3-dihydroxypropyl)-6-(4-fluorophenyl)-1,3-oxazinan-2-one] | < 100 | – | inhibition at 0.1 µM [4]: 98.6%
23 | C[C@@H](c1ccc(-c2ccc(F)cc2)cc1)N1CC[C@](CCCO)(c2cccs2)OC1=O [EXAMPLE 232, (R)-3-((S)-1-(4′-fluorobiphenyl-4-yl)ethyl)-6-(3-hydroxypropyl)-6-(thiophen-2-yl)-1,3-oxazinan-2-one] | < 100 | – | inhibition at 0.1 µM [4]: 96.9%
24 | C[C@@H](c1ccc(Br)cc1)N1CC[C@](CCC(N)=O)(c2ccc(F)cc2F)OC1=O (single isomer, unassigned) [EXAMPLE 504 Isomer 2] | < 100 | 94.4 | –
25 | C[C@@H](c1ccc(Br)cc1)N1CC[C@](CC(C)(C)N)(c2ccc(F)cc2)OC1=O [EXAMPLE 621, (S)-6-(2-amino-2-methylpropyl)-3-((S)-1-(4-bromophenyl)ethyl)-6-(4-fluorophenyl)-1,3-oxazinan-2-one] | < 100 | 78.3 | –
26 | CC(=O)C[C@]1(c2ccc(F)cc2)CCN([C@@H](C)c2ccc(OC(F)F)cc2)C(=O)O1 [EXAMPLE 321, (S)-3-((S)-1-(4-(difluoromethoxy)phenyl)ethyl)-6-(4-fluorophenyl)-6-(2-oxopropyl)-1,3-oxazinan-2-one] | < 100 | 96.1 | –
27 | C[C@@H](c1ccc(C(F)(F)F)cc1)N1CC[C@](CC(C)(C)O)(c2ccc(F)cc2)OC1=O [EXAMPLE 390, (S)-6-(4-fluorophenyl)-6-(2-hydroxy-2-methylpropyl)-3-((S)-1-(4-(trifluoromethyl)phenyl)ethyl)-1,3-oxazinan-2-one] | < 100 | 96.3 | –
28 | NC(=O)CC1(c2ccccc2)CCN(c2cccc(-c3ccc(F)cc3F)c2)C(=O)O1 (centres unmarked) [EXAMPLE 76, 2-(3-(2′,4′-difluorobiphenyl-3-yl)-2-oxo-6-phenyl-1,3-oxazinan-6-yl)acetamide] | < 100 | – | inhibition at 0.1 µM [4]: 81%
29 | C[C@@H](c1cccc(Br)c1)N1CC[C@](CCCO)(c2ccc(F)cc2)OC1=O [EXAMPLE 354, (R)-3-((S)-1-(3-bromophenyl)ethyl)-6-(4-fluorophenyl)-6-(3-hydroxypropyl)-1,3-oxazinan-2-one] | < 100 | 95.2 | –
30 | C[C@@H](c1ccc(-c2ccc(CO)cc2)cc1)N1CC[C@](CCCO)(c2ccccc2)OC1=O [EXAMPLE 494, (R)-3-((S)-1-(4′-(hydroxymethyl)biphenyl-4-yl)ethyl)-6-(3-hydroxypropyl)-6-phenyl-1,3-oxazinan-2-one] | < 100 | 100 | –
31 | CC(O)CC[C@]1(c2ccc(F)cc2)CCN([C@@H](C)c2ccc(F)cc2)C(=O)O1 (single isomer, unassigned) [EXAMPLE 411 Isomer 1] | < 100 | 88.7 | –
32 | O=C1OC(CCO)(c2ccccc2F)CCN1c1cccc(-c2ccc(F)cc2F)[n+]1[O-] (centres unmarked) [EXAMPLE 132, 2-(2,4-difluorophenyl)-6-(6-(2-fluorophenyl)-6-(2-hydroxyethyl)-2-oxo-1,3-oxazinan-3-yl)pyridine 1-oxide] | 100 to 1000 | – | inhibition at 0.1111 µM [2]: 30.4%
33 | CS(=O)(=O)NCCC1(c2ccccc2)CCN(c2cccc(-c3ccc(F)cc3F)c2)C(=O)O1 (centres unmarked) [EXAMPLE 99, N-(2-(3-(2′,4′-difluorobiphenyl-3-yl)-2-oxo-6-phenyl-1,3-oxazinan-6-yl)ethyl)methanesulfonamide] | < 100 | – | inhibition at 0.1111 µM [2]: 75.3%
